Where “and” joins values, the source holds several entries; their conditions need not be identical. Equal values may be shown once. Read-outs that look alike come from different tables or passages of the source.
Key:
bone marrow stem cells = details: administered within hours after coronary ligation, with or without rhG-CSF
Method: Adult rats are anesthetized and a thoracotomy is performed. The descending branch of the left coronary artery is ligated and not reperfused. […] Control rats are not treated with the reagents. The animals are monitored at one-week intervals by echocardiography and MRI. The experiment is terminated at 2, 6 to 12 weeks post-surgery. On the day of sacrifice, the hemodynamic functions are analyzed for left ventricle-end diastolic pressure, left ventricle-developed pressure and the rate of rise and fall of left ventricle pressure. The heart is then arrested in diastole and perfused via the abdominal aorta to flush residual blood from the vascular network of the myocardium. This is followed by perfusion of the heart with 10% formalin. Several slices are made through the fixed heart and these are embedded in paraffin and sections. The sections are stained and analyzed by light microscopy to determine the size of the infarct in the treated and control animals. Tissue sections from hearts taken at 2 weeks after surgery are stained with antibodies specific for immature, developing myocyte and blood vessel proteins and analyzed by confocal microscopy. The immunohistochemical analysis involves the identification of transcription factors and surface markers expressed in early stages of myocyte development.

[1] = tested on: granulocyte macrophage (CFU-GM), erythroid (BFU-E), and multipotential (CFU-GEMM) progenitor cells; details: for Absolute Number Progenitors Per ML Blood, BFU-E / Absolute Number Progenitors Per ML Blood, CFU-GEMM / Absolute Number Progenitors Per ML Blood, CFU-GM: 1 hour post administration; for Absolute Progenitors Per ML Blood, BFU-E / Absolute Progenitors Per ML Blood, CFU-GEMM / Absolute Progenitors Per ML Blood, CFU-GM: 5 mg/Kg single s.c.; for Absolute Progenitors Per ML Blood, BFU-E / Absolute Progenitors Per ML Blood, CFU-GEMM / Absolute Progenitors Per ML Blood, CFU-GM / Fold Change Compared to Time 0, progenitors BFU-E / Fold Change Compared to Time 0, progenitors CFU-GEMM / Fold Change Compared to Time 0, progenitors GM: methylcellulose culture
Method: Progenitors were stimulated to form colonies in vitro with the combination of 1 U/ml rhu Epo, 50 ng/ml rhu SLF, 5% Vol/Vol pokeweed mitogen mouse spleen cell conditioned medium (PWMSCM), and 0.1 mm hemin. Plates were scored 7 days after incubation.

WBC counts = details: human, in vivo
[2] = tested on: WBC count and circulating CD34+ progenitor/stem cells; details: single dose of 80 μg/kg, cited from earlier work
[3] = tested on: white blood cells, CD34 positive progenitor cells, CFU-GM, BFU-E, CFU-GEMM progenitor cells
Method: Five healthy human volunteers having initial white blood cell counts of 4,500-7,500 cells/mm^3 were used in the study. […] Blood samples were obtained via catheter prior to the dose, and at various times up to 24 hours after dosing.
The blood samples were evaluated for total white blood cells, CD34 positive progenitor cells (via FACS analysis) as a percentage of total white blood cells, as well as the absolute numbers per mL and cycling status of granulocyte macrophage (CFU-GM), erythroid (BFU-E), and multipotential (CFU-GEMM) progenitor cells.
All progenitor cell results are based on the scoring of 3 culture plates per assay per point.
For the progenitor cell numbers and cycling status, the numbers of CFU-GM, BFU-E and CFU-GEMM in methylcellulose cultures by stimulation of the cells with 1 Unit (U)/ml recombinant human (rhu) erythropoietin, 100 U/ml rhu granulocyte-macrophage colony stimulating factor (GM-CSF), 100 U/ml rhu interleukin-3 (IL-3) and 50 ng/ml rhu steel factor (SLF=stem cell factor (SCF)). The CFU-GM were also evaluated in agar cultures stimulated with 100 U/ml rhu GM-CSF and 50 ng/ml rhu SLF. For both types of assays, colonies were scored after 14 day incubation in a humidified atmosphere with 5% CO2 and lowered (5%) O2 tension. Cell cycling status of progenitors was measured using a high specific activity tritiated thymidine kill technique as previously described (Broxmeyer, H. E., et al., Exp. Hematol. (1989) 17:455-459).

progenitor cells = details: AMD3100 5 mg/Kg s.c. + MIP-1α 5 μg I.V., 11 hours after rhu G-CSF or saline, 1 hour before blood
Method: Groups of mice were randomized to receive control diluent (saline) or G-CSF at a dose of 2.5 μg per mouse, twice a day, for two days via s.c. injection. […] One hour later, the mice were sacrificed and the number of progenitor cells per mL of blood were measured.

[4] = T = 1 hours after injection, average of 5 donors

Method for white blood cell count: Eleven human patients having initial white blood cell counts of 4,000-6,500 cells/mm^3 were used in the study. […] Aliquots from this stock solution were added to 50-ml bags of 0.9% saline for intravenous injection in amounts to achieve the desired dosage levels (10 μg/kg-80 μg/kg).
The subjects described in this Example already contained an indwelling peripheral intravenous catheter. […] Blood samples were obtained prior to the dose, and at various times up to 24 hours after dose administration.
Three patients were administered dosages of 10 μg/kg (open circles); 3 patients were administered dosages of 20 μg/kg (solid circles); 3 patients were administered 40 μg/kg (open triangles); and 2 patients were administered 80 μg/kg (closed triangles).

SMILES: c1cc(CN2CCCNCCNCCCNCC2)ccc1CN1CCCNCCNCCCNCC1 [AMD3100, 1,1′-[1,4-phenylenebis(methylene)]-bis-1,4,8,11-tetra-azacyclotetradecane]
- Expected effect after induction of cardiac ischemia (bone marrow stem cells): mobilizes bone marrow stem cells rapidly
- Change of white blood cell count (white blood cell count; all patients, 10-80 μg/kg intravenous, succeeding 5-10 hours after administration): marked increase in white blood cell count
- Peak white blood cell count (white blood cell count; one patient, 80 μg/kg intravenous, from 6,000 cells/mm^3): 19,000 cells/mm^3
- White blood cell count after increase (white blood cell count; patient showing the least response, 20 μg/kg intravenous, from about 6,300 cells/mm^3): about 9,000 cells/mm^3
- Absolute Number Progenitors Per ML Blood, BFU-E ([1]; 1 mg/kg single s.c.): 62 Per ML Blood
- Absolute Number Progenitors Per ML Blood, CFU-GEMM ([1]; 1 mg/kg single s.c.): 27.1 Per ML Blood
- Absolute Number Progenitors Per ML Blood, CFU-GM ([1]; 1 mg/kg single s.c.): 424 Per ML Blood
- Absolute Number Progenitors Per ML Blood, BFU-E ([1]; 2.5 mg/kg single s.c.): 98.9 Per ML Blood
- Absolute Number Progenitors Per ML Blood, CFU-GEMM ([1]; 2.5 mg/kg single s.c.): 70.6 Per ML Blood
- Absolute Number Progenitors Per ML Blood, CFU-GM ([1]; 2.5 mg/kg single s.c.): 687.6 Per ML Blood
- Absolute Progenitors Per ML Blood, BFU-E ([1]; 15″): 134.5 Per ML Blood
- Absolute Progenitors Per ML Blood, CFU-GEMM ([1]; 15″): 90.4 Per ML Blood
- Absolute Progenitors Per ML Blood, CFU-GM ([1]; 15″): 791.6 Per ML Blood
- Absolute Progenitors Per ML Blood, BFU-E ([1]; 30″): 209.3 Per ML Blood
- Absolute Progenitors Per ML Blood, CFU-GEMM ([1]; 30″): 113.5 Per ML Blood
- Absolute Progenitors Per ML Blood, CFU-GM ([1]; 30″): 1805.5 Per ML Blood
- Absolute Progenitors Per ML Blood, BFU-E ([1]; 120″): 102.3 Per ML Blood
- Absolute Progenitors Per ML Blood, CFU-GEMM ([1]; 120″): 47.6 Per ML Blood
- Absolute Progenitors Per ML Blood, CFU-GM ([1]; 120″): 828.7 Per ML Blood
- Absolute Number Progenitors Per ML Blood, BFU-E ([1]; 5 mg/kg single s.c.): 92.8 Per ML Blood
- Absolute Number Progenitors Per ML Blood, CFU-GEMM ([1]; 5 mg/kg single s.c.): 69.5 Per ML Blood
- Absolute Number Progenitors Per ML Blood, CFU-GM ([1]; 5 mg/kg single s.c.): 608.4 Per ML Blood
- Absolute Number Progenitors Per ML Blood, BFU-E ([1]; 10 mg/kg single s.c.): 120.5 Per ML Blood
- Absolute Number Progenitors Per ML Blood, CFU-GEMM ([1]; 10 mg/kg single s.c.): 79.8 Per ML Blood
- Absolute Number Progenitors Per ML Blood, CFU-GM ([1]; 10 mg/kg single s.c.): 825.6 Per ML Blood
- Fold Change Compared to Time 0, progenitors BFU-E ([1]; Time 2′): 2.07 fold
- Fold Change Compared to Time 0, progenitors CFU-GEMM ([1]; Time 2′): 1.85 fold
- Fold Change Compared to Time 0, progenitors GM ([1]; Time 2′): 2.86 fold
- Fold Change Compared to Time 0, progenitors BFU-E ([1]; Time 15″): 2.72 fold
- Fold Change Compared to Time 0, progenitors CFU-GEMM ([1]; Time 15″): 3.51 fold
- Fold Change Compared to Time 0, progenitors GM ([1]; Time 15″): 2.73 fold
- Fold Change Compared to Time 0, progenitors BFU-E ([1]; Time 30″): 4.24 fold
- Fold Change Compared to Time 0, progenitors CFU-GEMM ([1]; Time 30″): 4.41 fold
- Fold Change Compared to Time 0, progenitors GM ([1]; Time 30″): 6.23 fold
- Time until WBC counts returned to baseline after discontinuation of the infusion (WBC counts): 7 days
- Peak increase in circulating CD34+ progenitor/stem cells ([2]; 6 hour time point): 6 fold
- WBC count [2]: 17,000 /μl
- Time of maximal elevation of white blood cell count and CD34 positive progenitor cells post-administration ([3]; 80 μg/kg single s.c.): 6 h
- Mobilization of white blood cells in individual volunteers ([3]; 80 μg/kg single s.c., 2 Hr, volunteers P1-P5): 12.4 ×10^3 WBC's and 21.4 ×10^3 WBC's and 13.5 ×10^3 WBC's
- % CHG, CFU-GEMM, methylcellulose culture ([3]; T = 1, average of 5 donors): 131.8%
- % CHG, CFU-GM, agar culture ([3]; T = 1, average of 5 donors): 180.8%
- % CHG, CFU-GM, methylcellulose culture ([3]; T = 1, average of 5 donors): 376.7%
- Fold change, BFU-E, methylcellulose culture, MEAN ([3]; T = 1, average of 5 donors): 1.99 fold
- Fold change, CFU-GEMM, methylcellulose culture, MEAN ([3]; T = 1, average of 5 donors): 2.32 fold
- Fold change, CFU-GM, agar culture, MEAN ([3]; T = 1, average of 5 donors): 2.81 fold
- Fold change, CFU-GM, methylcellulose culture, MEAN ([3]; T = 1, average of 5 donors): 4.77 fold
- % CHG, BFU-E, methylcellulose culture ([3]; T = 3, average of 5 donors): 221.3%
- % CHG, CFU-GEMM, methylcellulose culture ([3]; T = 3, average of 5 donors): 332.5%
- % CHG, CFU-GM, agar culture ([3]; T = 3, average of 5 donors): 754.1%
- % CHG, CFU-GM, methylcellulose culture ([3]; T = 3, average of 5 donors): 1266.5%
- % CHG, nucleated cellularity PBL-LD ([3]; T = 3, average of 5 donors): 185.6%
- % CHG, nucleated cellularity PBL-US ([3]; T = 3, average of 5 donors): 180.2%
- Fold change compared to TIME = 0, nucleated cellularity PBL-LD, MEAN ([3]; T = 3, average of 5 donors): 2.86 fold
- Fold change compared to TIME = 0, nucleated cellularity PBL-US, MEAN ([3]; T = 3, average of 5 donors): 2.80 fold
- Fold change, BFU-E, methylcellulose culture, MEAN ([3]; T = 3, average of 5 donors): 3.21 fold
- Fold change, CFU-GEMM, methylcellulose culture, MEAN ([3]; T = 3, average of 5 donors): 4.33 fold
- Fold change, CFU-GM, agar culture, MEAN ([3]; T = 3, average of 5 donors): 8.54 fold
- Fold change, CFU-GM, methylcellulose culture, MEAN ([3]; T = 3, average of 5 donors): 13.66 fold
- % CHG, BFU-E, methylcellulose culture ([3]; T = 6, average of 5 donors): 500.5%
- % CHG, CFU-GEMM, methylcellulose culture ([3]; T = 6, average of 5 donors): 907.2%
- % CHG, CFU-GM, agar culture ([3]; T = 6, average of 5 donors): 1692.8%
- % CHG, CFU-GM, methylcellulose culture ([3]; T = 6, average of 5 donors): 2070.6%
- % CHG, nucleated cellularity PBL-LD ([3]; T = 6, average of 5 donors): 266.3%
- % CHG, nucleated cellularity PBL-US ([3]; T = 6, average of 5 donors): 225.8%
- Fold change compared to TIME = 0, nucleated cellularity PBL-LD, MEAN ([3]; T = 6, average of 5 donors): 3.66 fold
- Fold change compared to TIME = 0, nucleated cellularity PBL-US, MEAN ([3]; T = 6, average of 5 donors): 3.26 fold
- Fold change, BFU-E, methylcellulose culture, MEAN ([3]; T = 6, average of 5 donors): 6.01 fold
- Fold change, CFU-GEMM, methylcellulose culture, MEAN ([3]; T = 6, average of 5 donors): 10.07 fold
- Fold change, CFU-GM, agar culture, MEAN ([3]; T = 6, average of 5 donors): 17.93 fold
- Fold change, CFU-GM, methylcellulose culture, MEAN ([3]; T = 6, average of 5 donors): 21.71 fold
- % CHG, BFU-E, methylcellulose culture ([3]; T = 9, average of 5 donors): 334.4%
- % CHG, CFU-GEMM, methylcellulose culture ([3]; T = 9, average of 5 donors): 425.4%
- % CHG, CFU-GM, methylcellulose culture ([3]; T = 9, average of 5 donors): 947.3%
- % CHG, nucleated cellularity PBL-LD ([3]; T = 9, average of 5 donors): 264.3%
- % CHG, nucleated cellularity PBL-US ([3]; T = 9, average of 5 donors): 209.4%
- Fold change compared to TIME = 0, nucleated cellularity PBL-LD, MEAN ([3]; T = 9, average of 5 donors): 3.64 fold
- Fold change compared to TIME = 0, nucleated cellularity PBL-US, MEAN ([3]; T = 9, average of 5 donors): 3.09 fold
- Fold change, BFU-E, methylcellulose culture, MEAN ([3]; T = 9, average of 5 donors): 4.34 fold
- Fold change, CFU-GEMM, methylcellulose culture, MEAN ([3]; T = 9, average of 5 donors): 5.25 fold
- Fold change, CFU-GM, methylcellulose culture, MEAN ([3]; T = 9, average of 5 donors): 10.47 fold
- % CHG, CFU-GM, agar culture ([3]; T = 9, average of donors): 924.9%
- Fold change, CFU-GM, agar culture, MEAN ([3]; T = 9, average of donors): 10.25 fold
- % CHG, BFU-E, methylcellulose culture ([3]; T = 24, average of 5 donors): 26.3%
- % CHG, CFU-GEMM, methylcellulose culture ([3]; T = 24, average of 5 donors): 53.2%
- % CHG, CFU-GM, methylcellulose culture ([3]; T = 24, average of 5 donors): 55.5%
- % CHG, nucleated cellularity PBL-US ([3]; T = 24, average of 5 donors): 7.0%
- Fold change compared to TIME = 0, nucleated cellularity PBL-LD, MEAN ([3]; T = 24, average of 5 donors): 1.05 fold
- Fold change compared to TIME = 0, nucleated cellularity PBL-US, MEAN ([3]; T = 24, average of 5 donors): 1.07 fold
- Fold change, BFU-E, methylcellulose culture, MEAN ([3]; T = 24, average of 5 donors): 1.26 fold
- Fold change, CFU-GEMM, methylcellulose culture, MEAN ([3]; T = 24, average of 5 donors): 1.53 fold
- Fold change, CFU-GM, methylcellulose culture, MEAN ([3]; T = 24, average of 5 donors): 1.56 fold
- % CHG, CFU-GM, agar culture ([3]; T = 24, average of donors): 108.3%
- Fold change, CFU-GM, agar culture, MEAN ([3]; T = 24, average of donors): 2.08 fold
- % CHG, nucleated cellularity PBL-LD [3, 4]: 86.2%
- % CHG, nucleated cellularity PBL-US [3, 4]: 68.6%
- Fold change compared to TIME = 0, nucleated cellularity PBL-LD, MEAN [3, 4]: 1.86 fold
- Fold change compared to TIME = 0, nucleated cellularity PBL-US, MEAN [3, 4]: 1.69 fold
- Time of maximal fold increases in circulating levels of progenitor cells after injection ([3]; all five donors): 6 h
- Mobilization of progenitor cells in combination with mu MIP-1α (progenitor cells): additive to greater than additive

Source: US7550484B2, “Chemokine receptor binding heterocyclic compounds with enhanced efficacy” (Genzyme Corporation, priority 2003, dated 2009)
